From BindingDB's records for doi:10.1021/jm00089a016 (Abbott Laboratories, 1992)

Assay: In vitro intrinsic binding affinity at platelet activating factor receptor using rabbit platelet membranes
Work on `COc1cc(C(C)CCCc2ccc(F)cc2)cc2c1C1=C(CCN(Cc3ccccn3)C1)C(C)(C)O2` (stereo unspecified) yielded a Ki of 4.21 µM. Compound `CC1CSC2=C1c1c(O)cc(C(C)CCCc3ccc(F)cc3)cc1OC2(C)C` (stereo unspecified) has a Ki of 43.8 µM. For `CNC(=O)CN(C)CC1=CC(C)(C)Oc2cc(C(C)CCCc3ccc(F)cc3)cc(O)c21` (stereo unspecified), the Ki was 1.57 µM. Compound `COc1cc(C(C)CCCc2ccc(F)cc2)cc2c1C1=C(CCN(CCCCCC(=O)O)C1)C(C)(C)O2` (stereo unspecified) has a Ki of 25 µM. `COc1cc(C(C)CCCc2ccc(F)cc2)cc2c1C1=C(CCN(CCCCC(=O)O)C1)C(C)(C)O2` (stereo unspecified) gave a Ki of 5.5 µM. `COc1cc(C(C)CCCc2ccc(F)cc2)cc2c1C1=C(CCN(CCC(=O)O)C1)C(C)(C)O2` (stereo unspecified) gave a Ki of 4.4 µM. In the case of `C#CCN1CCC2=C(C1)c1c(O)cc(C(C)CCCc3ccc(F)cc3)cc1OC2(C)C` (stereo unspecified), the Ki is reported as 3.25 µM. `CNC(=O)CN1CCC(C(C)(C)O)=C(c2c(O)cc(C(C)CCCc3ccc(F)cc3)cc2O)C1` (stereo unspecified) showed a Ki of 23.5 µM. With `CCCCCC(C)C(C)c1cc(O)c2c(c1)OC(C)(C)C1=C2CN(CC(=O)NC)CC1` (stereo unspecified) the Ki was 3.68 µM. `CNC(=O)CN1CCC2=C(C1)c1c(OCC(=O)O)cc(C(C)CCCc3ccc(F)cc3)cc1OC2(C)C` (stereo unspecified) showed a Ki of 0.925 µM. For `CNC(=O)CN1CCC2=C(C1)c1c(OC)cc(C(C)CCCc3ccc(F)cc3)cc1OC2(C)C` (stereo unspecified), the Ki was 0.142 µM. For `CC(CCCc1ccc(F)cc1)c1cc(O)c2c(c1)OC(C)(C)C1=C2CN(CC(=O)N(C)C)CC1` (stereo unspecified), the Ki was 15.8 µM. `CNC(=O)CN1CCC2=C(C1)c1c(O)cc(C(C)CCCc3ccc(F)cc3)cc1OC2(C)C` (stereo unspecified) gave a Ki of 0.331 µM. With `CC(CCCc1ccc(F)cc1)c1cc(O)c2c(c1)OC(C)(C)C1=C2CN(C(=O)CO)CC1` (stereo unspecified) the Ki was 20.5 µM. With `CNC(=O)CN1CCC2=C(C1)c1c(O)cc(C(C)C)cc1OC2(C)C` the Ki was 9 µM. Compound `CNC(=O)CCCN1CCC2=C(C1)c1c(O)cc(C(C)CCCc3ccc(F)cc3)cc1OC2(C)C` (stereo unspecified) has a Ki of 20.7 µM.
